US20090233966A1, “Analogues of the Azinomycins as Anti-Tumour Agents and as Prodrugs” (School of Pharmacy, University of London, priority 2005, published 2009)
Where two headings read alike, the source gives them in different places.

Assays:
UCC-62 = test: NCI 60 cell panel growth inhibition; type: cell-based, human; details: MELAN, read-out: anti-tumour activity GI50
From the text: (§1) Examples 6 and 7 make use of the NCl 60 cell panel. This is an in vitro cell line screening project providing direct support to the National Cancer Institute's USA Developmental Therapeutic Programme for anti cancer discovery. The methodolgy for the cell line's operation is described by Boyd et al in Drug Development Research 1995, 34, 91-109.

SF-268 = test: NCI 60 cell panel growth inhibition; type: cell-based, human; details: CNS, read-out: anti-tumour activity GI50
From the text: as §1

HOP-62 = test: NCI 60 cell panel growth inhibition; type: cell-based, human; details: NSCLC, read-out: anti-tumour activity GI50
From the text: as §1

PC-3 = test: NCI 60 cell panel growth inhibition; type: cell-based, human; details: PROST, read-out: anti-tumour activity GI50
From the text: as §1

HCC2998 = test: NCI 60 cell panel growth inhibition; type: cell-based, human; details: read-out: anti-tumour activity GI50
From the text: as §1

HL-60(TB) = test: NCI 60 cell panel growth inhibition; type: cell-based, human; details: Leukemia, read-out: anti-tumour activity GI50
From the text: as §1

SKOV-3 = test: NCI 60 cell panel growth inhibition; type: cell-based, human; details: read-out: anti-tumour activity GI50
From the text: as §1

SW-620 = test: NCI 60 cell panel growth inhibition; type: cell-based, human; details: COLON, read-out: anti-tumour activity GI50
From the text: as §1

CAKI-1 = test: NCI 60 cell panel growth inhibition; type: cell-based, human; details: RENAL, read-out: anti-tumour activity GI50
From the text: as §1

SNB-75 = test: NCI 60 cell panel growth inhibition; type: cell-based; details: Homo sapiens, CNS, read-out: anti-tumour activity GI50
From the text: as §1

HCT-15 = test: NCI 60 cell panel growth inhibition; type: cell-based; details: Homo sapiens, COLON, read-out: anti-tumour activity GI50
From the text: as §1

[1] = test system: linear double stranded plasmid pUC18 DNA; test: DNA crosslinking; type: biochemical; details: for EC50: read-out: CR50 (concentration at which 50% of the duplex is crosslinked)
Protocol: Plasmid DNA pUC 18 was linearised by digestion with Hind III. The linear DNA was then dephosphorylated with BAP and ^32P-radiolabelled on the 5′-end. The DNA was then purified by EtOH precipitation to remove unincorporated γ-^32P ATP and the DNA resuspended in sterile double distilled H2O. To each reaction sample was added ^32P-end labelled DNA and drug at the appropriate concentration. Following incubation at 37° C. for the required time, the reaction was terminated by the addition of Stop Solution Buffer. The DNA-drug adduct was EtOH precipitated and dried by lyophilisation. Each dried DNA sample including an untreated DNA single strand as a control was denatured by resuspending in alkali denaturing buffer. The double stranded control DNA was then dissolved in sucrose loading buffer and the samples loaded and electrophoresed on a 20 cm long 0.8% horizontal agarose gel submerged in 1×TAE buffer at 40 V for 16 h. Gels were then dried and autoradiographed
Compound 20 which consists of both the epoxide and mustard functionality was tested at concentrations between 0.1 and 50 μM at 1 h, 2 h and 3 h intervals. […] Crosslink formation starts at concentrations as low as 0.1 μM and reaches 100% crosslinking at −10 μM. After incubation for an hour the CR50 (concentration at which 50% of the duplex is crosslinked) was determined to be 3.1 μM. The percentage of crosslinked DNA was determined from autoradiograph densitometry.

## C=C(C)[C@H](OC(=O)c1cc(OC)cc2c(C)cccc12)C(=O)NCCN1CCCC(Cl)C1 (stereo partly drawn) [Compound 21]
UCC-62; Homo sapiens, 60 cell
  GI50: 4.41 µM
SF-268; Homo sapiens
  GI50: 11.9 µM
HOP-62; Homo sapiens
  GI50: 3.45 µM
PC-3; Homo sapiens
  GI50: 7.96 µM
HCC2998; Homo sapiens, HCC 2998, COLON
  GI50: 4.27 µM
HL-60(TB); Homo sapiens
  GI50: 12.1 µM
SKOV-3; Homo sapiens, SK-OV-3, OVAR
  GI50: 17.2 µM
SW-620; Homo sapiens
  GI50: 2.76 µM
CAKI-1; Homo sapiens
  GI50: 5.66 µM
SNB-75
  GI50: 1.2 µM
HCT-15
  GI50: 0.049 µM

## COc1cc(C(=O)OC(C(=O)NCCN2CCCC(Cl)C2)C2(C)CO2)c2cccc(C)c2c1 (stereo not drawn) [Compound 20]
UCC-62
  GI50: 14.7 µM
SF-268
  GI50: 16.6 µM
HOP-62
  GI50: 100 µM
PC-3
  GI50: 11.2 µM
HCC2998; COLON
  GI50: 8.25 µM
HL-60(TB)
  GI50: 6.98 µM
SKOV-3; OVAR
  GI50: 19.7 µM
SW-620
  GI50: 5.26 µM
CAKI-1
  GI50: 10.3 µM
[1]; 1 h incubation
  concentration at which crosslink formation starts: 0.1 µM
[1]; 1 h incubation, 37° C.
  EC50: 3.1 µM
[1]; 2 h incubation
  EC50: 2.7 µM
[1]; 3 h incubation
  EC50: 2.2 µM
